Experimental data: patent US20050255595A1, “Genetically modified non-human mammal cells, procedure for their production and use in toxicity tests” (priority 2002, published 2005)

Tests used:
[1] = system: single transgenic HPS70/hGH primary hepatocytes (PHGH); assay: toxicity test, hGH secretion by primary transgenic hepatocytes (PHGH); assay type: cell-based, mice
Source text: On the basis of the results illustrated, for the further analyses, clone no. […] The response to the toxic stress of the clone MMH/GH5 was then compared with the one obtained in single transgenic HPS70/hGH primary hepatocytes (PHGH). A representative sample of the cell line derived from said clone MMH/GH5 was deposited in accordance with and for the purposes of the Treaty of Budapest on the international recognition of deposit of micro-organisms for the purposes of the patents procedure with the AID “Centro di Biotecnologie Avanzate (CBA), Interlab Cell Line Collection (ICLC)” Servizio Biotecnologie, Largo R. Benzi, 10, 16132 Genova, Italy, on Jul. 30, 2002, where it was given identification number PD 02007.
(§1) In table 3 the cellular survival percentage was determined with the Trypan Blue exclusion method. […]
(§2) For treatment, the two types of cells were treated with different concentrations of the compounds for 1 or 5 hours and then with normal medium for a further 24 hours. The effects of the treatment were assessed as described previously for the inorganic toxicants.

[2] = system: primary hepatocytes (PHGH); assay: cellular survival of PHGH, Trypan Blue exclusion; assay type: cell-based, mice; design: % cellular survival, PHGH 1 + 24 h / % cellular survival, PHGH 5 + 24 / % vitality of the cells, PHGH 1 + 24 h / % vitality of the cells, PHGH 5 + 24 h: unit of the concentration uncertain; conditions: for % cellular survival, PHGH 1 + 24 h / % vitality of the cells, PHGH 1 + 24 h: 1 h treatment + 24 h normal medium; for % cellular survival, PHGH 5 + 24 / % vitality of the cells, PHGH 5 + 24 h: 5 h treatment + 24 h normal medium
Source text: (§3) This different behaviour is explained by the greater sensitivity to the toxicant of the PHGH with respect to the MMH/GH5 as shown by analysis of the cellular vitality performed with the Trypan Blue method (FIG. 1, graph B). […] Therefore the greater resistance of the cells MMH/GH/5 to the toxicants constitutes another evident advantage as it permits the exclusion of false negatives in which the non-release of hGH, due to cellular death, is interpreted as non-toxicity of the compound. When the supernatant is collected after 5 hours of treatment followed by 24 hours of culture with normal medium (FIG. 1 graph C) the PHGHs respond, at the lowest concentrations of the two toxicants, with high levels of secretion of hGH and, at the highest concentrations, with low levels of secretion of hGH (lower cellular survival, graph D).
as §1, §2

MMH/GH5 cells = assay: cellular survival of MMH/GH5, Trypan Blue exclusion; assay type: cell-based, mice; design: % cellular survival, MMHGH/5 1 + 24 h / % cellular survival, MMHGH/5 5 + 24 / % vitality of the cells, MMH/GH 1 + 24 h / % vitality of the cells, MMH/GH 5 + 24 h: unit of the concentration uncertain; conditions: for % cellular survival, MMHGH/5 1 + 24 h / % vitality of the cells, MMH/GH 1 + 24 h: 1 h treatment + 24 h normal medium; for % cellular survival, MMHGH/5 5 + 24 / % vitality of the cells, MMH/GH 5 + 24 h: 5 h treatment + 24 h normal medium
Source text: as §3, §1, §2

[3] = 0.5 (unit uncertain), Trypan Blue
[4] = 1 (unit uncertain), Trypan Blue
[5] = 10 (unit uncertain), Trypan Blue
[6] = 50 (unit uncertain), Trypan Blue (Table 4)
[7] = 5 (unit uncertain), Trypan Blue

| SMILES | % cellular survival, PHGH 1 + 24 h [2, 3] | % cellular survival, PHGH 5 + 24 [2, 3] | % cellular survival, PHGH 1 + 24 h [2, 4] | % cellular survival, PHGH 5 + 24 [2, 4] | % cellular survival, MMHGH/5 1 + 24 h (MMH/GH5 cells; [3]) | % cellular survival, MMHGH/5 5 + 24 (MMH/GH5 cells; [3]) | % cellular survival, MMHGH/5 1 + 24 h (MMH/GH5 cells; [4]) | % cellular survival, MMHGH/5 5 + 24 (MMH/GH5 cells; [4]) | % vitality of the cells, PHGH 1 + 24 h [2, 6] | % vitality of the cells, PHGH 5 + 24 h [2, 6] | % vitality of the cells, MMH/GH 1 + 24 h (MMH/GH5 cells; [6]) | % vitality of the cells, MMH/GH 5 + 24 h (MMH/GH5 cells; [6]) | other results |
| --- | --- | --- | --- | --- | --- | --- | --- | --- | --- | --- | --- | --- | --- |
| C=CC(O)CCCCC (centres unmarked) [1-Oct, 1-octene-3-ol] | 90% | 60% | 50% | 20% | 90% | 50% | 70% | 20% |  |  |  |  | effect of the treatment (hGH secretion) ([1]; PHGH versus MMH/GH, at the end of the treatment): can be measured only in PHGH; cellular survival ([2]; PHGH, words, Table 3): reduced cellular survival |
| O=C1C=CCC1 [2-Cycl, 2-cyclopentene-1-one] | 90% | 90% | 80% | 60% | 90% | 90% | 90% | 90% |  |  |  |  | response (hGH secretion) in MMH/GH5 (MMH/GH5 cells (Clone 5); words, Table 3): rapid response |
| c1ccc2c(c1)cc1ccc3cccc4ccc2c1c34 [BaP, Benzo(a)Pyrene] |  |  |  |  |  |  |  |  | 50% | 30% | 90% | 90% | stimulation of the promoter HSP70 in the PHGHs ([1]; words, Table 4): does not stimulate; % vitality of the cells, PHGH 1 + 24 h [2, 5]: 50%; % vitality of the cells, PHGH 5 + 24 h [2, 5]: 50%; % vitality of the cells, MMH/GH 1 + 24 h (MMH/GH5 cells; [5]): 90%; % vitality of the cells, MMH/GH 5 + 24 h (MMH/GH5 cells; [5]): 90% |
| O=[N+]([O-])c1ccc(Cl)c([N+](=O)[O-])c1 [CDNB, 1-Chloro-2,4-DiNitro-Benzene] |  |  |  |  |  |  |  |  | 5% | 5% | 70% | 20% | % vitality of the cells, PHGH 1 + 24 h [2, 7]: 80%; % vitality of the cells, PHGH 5 + 24 h [2, 7]: 40%; % vitality of the cells, MMH/GH 1 + 24 h (MMH/GH5 cells; [7]): 80%; % vitality of the cells, MMH/GH 5 + 24 h (MMH/GH5 cells; [7]): 60%; toxicity on MMH/GH5 cells compared with PHGHs (MMH/GH5 cells; words, data in table 4): less toxic; secretion of the hGH from the MMH/GH5 cells (MMH/GH5 cells (Clone 5); all the conditions tested): considerable secretion |
